{"source": "paper PMC9459812", "about": "“Evaluation of Activity of Sesquiterpene Lactones and Chicory Extracts as Acetylcholinesterase Inhibitors Assayed in Calorimetric and Docking Simulation Studies” (Nutrients, 2022)", "key": {"[1]": {"biological_target": "T1, acetylcholinesterase (AChE) (Electrophorus electricus, UniProt O42275)", "T1 sequence (O42275 24-633)": "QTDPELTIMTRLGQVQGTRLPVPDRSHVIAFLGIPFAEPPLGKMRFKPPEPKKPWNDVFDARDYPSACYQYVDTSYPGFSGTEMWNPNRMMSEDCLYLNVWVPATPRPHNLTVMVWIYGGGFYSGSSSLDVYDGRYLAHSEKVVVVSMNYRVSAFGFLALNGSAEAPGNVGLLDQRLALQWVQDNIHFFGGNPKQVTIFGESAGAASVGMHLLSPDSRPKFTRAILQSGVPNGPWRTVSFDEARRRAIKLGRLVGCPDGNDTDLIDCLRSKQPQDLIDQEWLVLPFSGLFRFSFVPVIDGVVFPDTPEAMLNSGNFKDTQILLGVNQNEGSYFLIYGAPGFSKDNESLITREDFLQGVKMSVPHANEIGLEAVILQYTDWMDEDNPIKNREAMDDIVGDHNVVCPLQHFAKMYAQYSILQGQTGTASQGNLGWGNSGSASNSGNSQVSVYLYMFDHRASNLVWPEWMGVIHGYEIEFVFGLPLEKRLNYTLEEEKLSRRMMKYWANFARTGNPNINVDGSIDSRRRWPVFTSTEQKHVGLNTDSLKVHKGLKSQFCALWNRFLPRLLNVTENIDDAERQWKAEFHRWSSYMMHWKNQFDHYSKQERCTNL", "experiment": "biochemical", "details": "ITC, 36.6 °C, single binding site mode, n = 9, ± SD; read-out: KD (dissociation constant)"}, "[2]": {"biological_target": "T1, acetylcholinesterase (AChE)", "experiment": "biochemical", "details": "ITC, n = 9, ± SD"}}, "data": [{"smiles": "C=C1C(=O)O[C@@H]2[C@H]3C(CO)=CC(=O)C3=C(C)C[C@H](OC(=O)Cc3ccc(O)cc3)[C@@H]12", "note": "[Lactucopicrin, lactucopicrin]", "values": [{"measurement": "Kd", "setting": "[1]", "value": "169000 ± 120", "unit": "nM"}, {"measurement": "Ki", "setting": "[2]; dissociation constant of the enzyme–inhibitor complex, read-out: KI (inhibition constant)", "value": "1320 ± 110", "unit": "nM"}, {"measurement": "IC50", "setting": "[2]; inhibitor concentration causing 50% decrease in enzyme activity (converted to lactucine for extracts)", "value": "1740 ± 110", "unit": "nM"}]}]}
